Source: patent publication US6245336A, “Prevention and treatment of acetaminophen toxicity with grape seed proanthocyanidin extract” (Dry Creek Nutrition, Inc., priority 1999, dated 2001)

Columns and labels:
[1] = system: liver tissue; assay: DNA fragmentation assay of liver tissue from acetaminophen-treated mice; assay type: in vivo; conditions: without pre-exposure to GSPE
Experimental: (§1) Trials of the efficacy of GSPE in preventing acetaminophen toxicity were performed using mice as test subjects. The GSPE used in the subject trials is a standardized water-ethanol extract from red grape seeds, identified as IH636 by InterHealth Nutraceuticals, Inc., of Concord, Calif. The dosage used in the subject trials was 100 mg of GSPE per kg of body weight, daily for three or seven days. This dosage is equivalent to about […] of body weight, based on the following formula from the CRC Handbook of Toxicology, Delanko M. J. and Hollinger M. A. eds., CRC Press 1995, p. 654:
(§2) GSPE was dissolved in phosphate-buffered saline solution and the solution was administered orally. Acetaminophen then was administered intraperitoneally, as a single toxic dose, in dosage of either 400 or 500 mg/kg. These dosage levels are equivalent to approximately 10 grams for normal healthy adults and 4 to 6 grams for alcoholics, levels that have been found toxic for humans. Twenty-four hours after administration of the acetaminophen, blood samples were removed from the subjects and analyzed for serum alanine aminotransferase activity, a well-known biomarker of liver toxicity. Liver samples also were taken and analyzed them for apoptotic and necrotic cell death DNA damage and gene expression.

[2] = system: humans; conditions: normal healthy adults; cited from earlier work
[3] = system: liver sections; assay: liver sections at 400× magnification (histology); assay type: in vivo, mice; conditions: acetaminophen 500 mg/kg without GSPE pre-treatment; FIG. 11
Experimental: as §1
FIGS. 9 through 12 show comparison liver sections from test subjects at 400× magnification. FIGS. 9 and 10 show normal liver sections from test subjects not given acetaminophen.

[4] = system: serum alanine aminotransferase activity; assay: serum alanine aminotransferase (ALT) activity in acetaminophen-treated mice; assay type: in vivo; conditions: no pre-exposure to GSPE, 24 h
Experimental: as §1, §2

[5] = system: mice; assay: number of deaths of mice treated with acetaminophen and GSPE; assay type: in vivo; conditions: without pre-exposure to GSPE
Experimental: as §1, §2

CC(=O)Nc1ccc(O)cc1 [acetaminophen, N-acetyl-p-amino phenol]
DNA fragmentation ([1]; acetaminophen 400 mg/kg): about 3.5 times that of the control group
DNA fragmentation ([1]; acetaminophen 500 mg/kg): about 4.8 times that of the control group
dosage level found toxic for humans [2]: approximately 10 grams
liver section appearance indicating toxicity [3]: whitening and browning of cells, indicating toxicity
serum ALT ([4]; acetaminophen 400 mg/kg i.p.): about 22,000 U/L
serum ALT ([4]; acetaminophen 500 mg/kg i.p.): about 30,000 U/L
number of deaths ([5]; acetaminophen 400 mg/kg): 2
number of deaths ([5]; acetaminophen 500 mg/kg): 4
